# Assay results from patent publication US20230075856A1, “CYCLIC SULFAMIDE COMPOUNDS FOR TREATMENT OF HBV” (Assembly Biosciences, Inc., priority 2018, published 2023).
# Tested on: HBV viral load production from HepAD38 cells
# Test: Viral production from HepAD38 cells: viral load in supernatant by qPCR of the HBV core sequence
# Format: cell-based
# Conditions: 5 days incubation, qPCR of supernatant HBV DNA vs DMSO control, read-out: viral load lowering EC50 (Activity)
# Procedure, shortened: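 Viral load was measured by qPCR of the HBV core region in supernatant, quantified against DNA standards and compared with DMSO wells. Cells (50,000/well, tetracycline withdrawn, 2% FBS) received compound from 10 μM final for 5 days; EC50 from four-parameter nonlinear regression.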
row,SMILES,EC50
1,"CN1C(C(=O)Nc2ccc(F)c(Cl)c2)CC(C(=O)NCc2cnc(-c3ccc(C#CCN4CCCCC4)cc3)s2)NS1(=O)=O (single isomer, unassigned) [Compound 946-ISOMER-B, N3-(3-chloro-4-fluoro-phenyl)-2-methyl-1,1-dioxo-N5-[[2-[4-[3-(1-piperidyl)prop-1-ynyl]phenyl]thiazol-5-yl]methyl]-1,2,6-thiadiazinane-3,5-dicarboxamide]",100 to 10000 nM
2,"CN1C(C(=O)Nc2ccc(F)c(Cl)c2)CC(C(=O)NC2CCN(c3ccccn3)CC2)NS1(=O)=O (single isomer, unassigned) [Compound 769-ISOMER-B, N3-(3-chloro-4-fluoro-phenyl)-2-methyl-1,1-dioxo-N5-[1-(2-pyridyl)-4-piperidyl]-1,2,6-thiadiazinane-3,5-dicarboxamide]",100 to 10000 nM
3,"Cc1ccccc1-c1nc(C)c(CNC(=O)C2CC(C(=O)Nc3ccc(F)c(Cl)c3)N(C)S(=O)(=O)N2)s1 (single isomer, unassigned) [1017-ISOMER-B, N3-(3-chloro-4-fluoro-phenyl)-2-methyl-N5-[[4-methyl-2-(o-tolyl)thiazol-5-yl]methyl]-1,1-dioxo-1,2,6-thiadiazinane-3,5-dicarboxamide]",100 to 10000 nM
4,"CN1C(C(=O)Nc2ccc(F)c(Cl)c2)CC(C(=O)NCc2cccc(Cl)c2)NS1(=O)=O (single isomer, unassigned) [Compound 730-ISOMER-B, N3-(3-chloro-4-fluorophenyl)-N5-[(3-chlorophenyl)methyl]-2-methyl-1,1-dioxo-1,2,6-thiadiazinane-3,5-dicarboxamide]",100 to 10000 nM
5,"Cc1nc(-c2ccc(OCCN3CCCCC3)cc2)sc1CNC(=O)C1CC(C(=O)Nc2ccc(F)c(Cl)c2)N(C)S(=O)(=O)N1 (single isomer, unassigned) [1087-ISOMER-B, N3-(3-chloro-4-fluoro-phenyl)-2-methyl-N5-[[4-methyl-2-[4-[2-(1-piperidyl)ethoxy]phenyl]thiazol-5-yl]methyl]-1,1-dioxo-1,2,6-thiadiazinane-3,5-dicarboxamide]",50 to 100 nM

# Same assay, conditions: Hepatitis B virus, HePAD38, 120 h, 5 days incubation, qPCR of supernatant HBV DNA vs DMSO control, read-out: viral load lowering EC50 (Activity)
row,SMILES,EC50
1,"Cc1c(CNC(=O)C2CC(C(=O)Nc3ccc(F)c(Cl)c3)N(C)S(=O)(=O)N2)noc1-c1ccccc1 (single isomer, unassigned) [1150-ISOMER-A, N3-(3-chloro-4-fluoro-phenyl)-2-methyl-N5-[(4-methyl-5-phenyl-isoxazol-3-yl)methyl]-1,1-dioxo-1,2,6-thiadiazinane-3,5-dicarboxamide]",< 50 nM
2,"CN1C(C(=O)Nc2ccc(F)c(Cl)c2)C[C@@H](C(=O)N[C@H](c2ccccc2)c2cnc(-c3ccccc3Cl)s2)NS1(=O)=O (single isomer, unassigned) [1068-ISOMER-C]",< 50 nM
3,"CN1C(C(=O)Nc2ccc(F)c(Cl)c2)CC(C(=O)N[C@H](c2ccccc2)c2cnc(Cl)s2)NS1(=O)=O (single isomer, unassigned) [1066-ISOMER-C]",< 50 nM
4,"CN1C(C(=O)Nc2ccc(F)c(Cl)c2)CC(C(=O)NC2CCN(c3ccnc(Cl)c3)CC2)NS1(=O)=O (single isomer, unassigned) [1012-ISOMER-A, N3-(3-Chloro-4-fluoro-phenyl)-N5-[1-(2-chloro-4-pyridyl)-4-piperidyl]-2-methyl-1,1-dioxo-1,2,6-thiadiazinane-3,5-dicarboxamide]",< 50 nM
5,"CN1C(C(=O)Nc2ccc(F)c(Cl)c2)CC(C(=O)N[C@@H]2CCN(c3ccnc(Cl)c3)C2)NS1(=O)=O (single isomer, unassigned) [1055-R-ISOMER-A]",100 to 10000 nM
6,"CC(C)OC(=O)N1CCC(NC(=O)C2CC(C(=O)Nc3ccc(F)c(Cl)c3)N(C)S(=O)(=O)N2)CC1 (single isomer, unassigned) [Compound 766-ISOMER-A, isopropyl 4-[[5-[(3-chloro-4-fluoro-phenyl)carbamoyl]-6-methyl-1,1-dioxo-1,2,6-thiadiazinane-3-carbonyl]amino]piperidine-1-carboxylate]",< 50 nM
7,CN1C(C(=O)Nc2ccc(F)c(Cl)c2)CC(C(=O)NCc2csc(Cl)n2)NS1(=O)=O (centres unmarked) [Compound 1006],50 to 100 nM
8,"Cc1nc(-c2ccccn2)sc1CNC(=O)C1CC(C(=O)Nc2ccc(F)c(Cl)c2)N(C)S(=O)(=O)N1 (single isomer, unassigned) [1065-ISOMER-A, N3-(3-chloro-4-fluoro-phenyl)-2-methyl-N5-[[4-methyl-2-(2-pyridyl)thiazol-5-yl]methyl]-1,1-dioxo-1,2,6-thiadiazinane-3,5-dicarboxamide]",100 to 10000 nM
9,CCN1C(C(=O)Nc2ccc(F)c(Cl)c2)CC(C(=O)NCc2cnc(C)s2)NS1(=O)=O (centres unmarked) [Compound 888],100 to 10000 nM
10,CN1C(C(=O)Nc2ccc(F)c(Cl)c2)CC(C(=O)NC2CCN(c3ccnc(Cl)c3)C2)NS1(=O)=O (centres unmarked) [Compound 1055],< 50 nM
11,"Cc1nc(-c2ccccc2F)sc1[C@@H](NC(=O)C1CC(C(=O)Nc2ccc(F)c(Cl)c2)N(C)S(=O)(=O)N1)c1ccccc1 (single isomer, unassigned) [1101-ISOMER-B]",100 to 10000 nM
12,"CN1C(C(=O)Nc2ccc(F)c(Cl)c2)CC(C(=O)NC2CCN(c3cc(CN4CCCCC4)ccn3)CC2)NS1(=O)=O (single isomer, unassigned) [Compound 975-ISOMER-A, N3-(3-chloro-4-fluoro-phenyl)-2-methyl-1,1-dioxo-N5-[1-[4-(1-piperidylmethyl)-2-pyridyl]-4-piperidyl]-1,2,6-thiadiazinane-3,5-dicarboxamide]",< 50 nM
13,CN1CCC(Oc2ccc(-c3ncc(CNC(=O)C4CC(C(=O)Nc5ccc(F)c(Cl)c5)N(C)S(=O)(=O)N4)s3)cc2)CC1 (centres unmarked) [Compound 979],< 50 nM
14,CN1C(C(=O)Nc2ccc(F)c(Cl)c2)CC(C(=O)NCc2cnc(-c3cscn3)s2)NS1(=O)=O (centres unmarked) [Compound 929],< 50 nM
15,"CN1C(C(=O)Nc2ccc(F)c(Cl)c2)CC(C(=O)NCc2nn(-c3ccccc3)c3ccccc23)NS1(=O)=O (single isomer, unassigned) [1072-ISOMER-A, N3-(3-chloro-4-fluoro-phenyl)-2-methyl-1,1-dioxo-N5-[(1-phenylindazol-3-yl)methyl]-1,2,6-thiadiazinane-3,5-dicarboxamide]",< 50 nM
16,Cc1cc(CNC(=O)C2CC(C(=O)Nc3ccc(F)c(Cl)c3)N(C)S(=O)(=O)N2)n(C)n1 (centres unmarked) [Compound 482],< 50 nM
17,"CN1C(C(=O)Nc2ccc(F)c(Cl)c2)CC(C(=O)NCc2cnc(-c3cccnc3)s2)NS1(=O)=O (single isomer, unassigned) [Compound 911-ISOMER-A, N3-(3-chloro-4-fluoro-phenyl)-2-methyl-1,1-dioxo-N5-[[2-(3-pyridyl)thiazol-5-yl]methyl]-1,2,6-thiadiazinane-3,5-dicarboxamide]",100 to 10000 nM

row,SMILES,EC50
1,"Cc1nc(-c2ccccc2Cl)sc1[C@H](NC(=O)C1CC(C(=O)Nc2ccc(F)c(Cl)c2)N(C)S(=O)(=O)N1)c1ccccc1 (single isomer, unassigned) [1100-ISOMER-C]",100 to 10000 nM
2,CN(C)CCCCc1cnn(-c2ncc(CNC(=O)C3CC(C(=O)Nc4ccc(F)c(Cl)c4)N(C)S(=O)(=O)N3)s2)c1 (centres unmarked) [Compound 1197],100 to 10000 nM
3,CN1C(C(=O)Nc2ccc(F)c(Cl)c2)CC(C(=O)NCc2cn(-c3ccccc3)nn2)NS1(=O)=O (centres unmarked) [Compound 1147],50 to 100 nM
4,CN1C(C(=O)Nc2ccc(F)c(Cl)c2)CC(C(=O)NCc2cc(-c3ccccc3Cl)no2)NS1(=O)=O (centres unmarked) [Compound 1025],< 50 nM
5,CN1C(C(=O)Nc2ccc(F)c(Cl)c2)CC(C(=O)NCc2sc(Cl)nc2C(F)(F)F)NS1(=O)=O (centres unmarked) [Compound 1062],50 to 100 nM
6,"Cc1nc(-c2ccccc2F)sc1CN(C(=O)C1CC(C(N)=O)NS(=O)(=O)N1C)c1ccc(F)c(Cl)c1 (single isomer, unassigned) [1016-ISOMER-A, N3-(3-chloro-4-fluoro-phenyl)-N-[[2-(2-fluorophenyl)-4-methyl-thiazol-5-yl]methyl]-2-methyl-1,1-dioxo-1,2,6-thiadiazinane-3,5-dicarboxamide]",< 50 nM
7,Cc1c(CNC(=O)C2CC(C(=O)Nc3ccc(F)c(Cl)c3)N(C)S(=O)(=O)N2)noc1-c1ccccc1 (centres unmarked) [Compound 1150],< 50 nM
8,Cc1nc(CNC(=O)C2CC(C(=O)Nc3ccc(F)c(Cl)c3)N(C)S(=O)(=O)N2)sc1Br (centres unmarked) [Compound 1069],< 50 nM
9,CN1C(C(=O)Nc2ccc(F)c(Cl)c2)CC(C(=O)NCc2cnc(C3=CCC(C)(C)C3)s2)NS1(=O)=O (centres unmarked) [Compound 1205],100 to 10000 nM
10,CN1C(C(=O)Nc2ccc(F)c(Cl)c2)CC(C(=O)NC2CCN(C(=O)OC(C)(C)C)C2)NS1(=O)=O (centres unmarked) [Compound 1081],100 to 10000 nM
11,"CN1C(C(=O)Nc2ccc(F)c(Cl)c2)CC(C(=O)NCc2cnc(N)s2)NS1(=O)=O (single isomer, unassigned) [1132-ISOMER-A, N5-[(2-aminothiazol-5-yl)methyl]-N3-(3-chloro-4-fluoro-phenyl)-2-methyl-1,1-dioxo-1,2,6-thiadiazinane-3,5-dicarboxamide]",50 to 100 nM
12,CN1C(C(=O)Nc2ccc(F)c(Cl)c2)CC(C(=O)NCc2cc(Br)no2)NS1(=O)=O (centres unmarked) [Compound 980],100 to 10000 nM
13,Cc1nc(CNC(=O)C2CC(C(=O)Nc3ccc(F)c(Cl)c3)N(C)S(=O)(=O)N2)sc1-c1ccccc1Cl (centres unmarked) [Compound 1071],< 50 nM
14,"CC(C)OC1CCC(NC(=O)C2CC(C(=O)Nc3ccc(F)c(Cl)c3)N(C)S(=O)(=O)N2)CC1 (single isomer, unassigned) [Compound 862-ISOMER-A, N3-(3-chloro-4-fluoro-phenyl)-N5-(4-isopropoxycyclohexyl)-2-methyl-1,1-dioxo-1,2,6-thiadiazinane-3,5-dicarboxamide]",100 to 10000 nM
15,CN1C(C(=O)Nc2ccc(F)c(Cl)c2)CC(C(=O)NCc2ccc(Cl)cc2)NS1(=O)=O (centres unmarked) [Compound 729],< 50 nM
16,Cc1c(CNC(=O)C2CC(C(=O)Nc3ccc(F)c(Cl)c3)N(C)S(=O)(=O)N2)cnn1C (centres unmarked) [Compound 740],< 50 nM
